Columns and labels:
[1] = target: human serum albumin (HSA) (Homo sapiens, UniProt P02768); conditions: cited from earlier work
[2] = tested on: human glioma; conditions: murine model; cited from earlier work
[3] = target: T1, topoisomerase I cleavage complexes (Homo sapiens, UniProt P11387); conditions: cell-free; vs camptothecin or SN-38; cited from earlier work
T1 sequence (P11387 1-765): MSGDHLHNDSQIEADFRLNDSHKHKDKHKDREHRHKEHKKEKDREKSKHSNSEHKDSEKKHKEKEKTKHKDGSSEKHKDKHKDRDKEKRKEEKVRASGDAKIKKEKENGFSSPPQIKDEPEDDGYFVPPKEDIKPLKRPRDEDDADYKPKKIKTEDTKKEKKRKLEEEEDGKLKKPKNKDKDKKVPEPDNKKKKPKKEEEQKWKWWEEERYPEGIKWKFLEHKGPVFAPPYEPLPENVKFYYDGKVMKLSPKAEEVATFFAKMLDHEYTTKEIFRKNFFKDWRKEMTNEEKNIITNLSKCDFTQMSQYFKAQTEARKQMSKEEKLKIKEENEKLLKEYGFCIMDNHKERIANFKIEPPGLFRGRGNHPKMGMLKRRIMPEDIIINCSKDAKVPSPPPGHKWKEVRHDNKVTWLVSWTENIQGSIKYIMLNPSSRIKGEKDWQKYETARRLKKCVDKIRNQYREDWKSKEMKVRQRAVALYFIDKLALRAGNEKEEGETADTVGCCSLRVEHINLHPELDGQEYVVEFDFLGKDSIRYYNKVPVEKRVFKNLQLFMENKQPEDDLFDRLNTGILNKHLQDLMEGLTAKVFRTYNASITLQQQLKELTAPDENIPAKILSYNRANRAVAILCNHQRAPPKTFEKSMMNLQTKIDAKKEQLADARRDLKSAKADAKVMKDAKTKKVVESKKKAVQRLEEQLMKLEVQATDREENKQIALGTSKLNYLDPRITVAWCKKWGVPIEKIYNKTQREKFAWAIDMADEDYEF

[4] = human blood, cited from earlier work
[5] = Non-enzymatic decomposition of the glycinate ester prodrug at physiological pH; type: physicochemical; conditions: pH of 7 or above
Source text: 4 arose by a competitive intermolecular reaction to the lactam intermediate and reacted to release both 5 and 6.

[6] = Stability of free and liposomal prodrug in whole blood

human serum albumin (HSA), sequence (P02768 25-609): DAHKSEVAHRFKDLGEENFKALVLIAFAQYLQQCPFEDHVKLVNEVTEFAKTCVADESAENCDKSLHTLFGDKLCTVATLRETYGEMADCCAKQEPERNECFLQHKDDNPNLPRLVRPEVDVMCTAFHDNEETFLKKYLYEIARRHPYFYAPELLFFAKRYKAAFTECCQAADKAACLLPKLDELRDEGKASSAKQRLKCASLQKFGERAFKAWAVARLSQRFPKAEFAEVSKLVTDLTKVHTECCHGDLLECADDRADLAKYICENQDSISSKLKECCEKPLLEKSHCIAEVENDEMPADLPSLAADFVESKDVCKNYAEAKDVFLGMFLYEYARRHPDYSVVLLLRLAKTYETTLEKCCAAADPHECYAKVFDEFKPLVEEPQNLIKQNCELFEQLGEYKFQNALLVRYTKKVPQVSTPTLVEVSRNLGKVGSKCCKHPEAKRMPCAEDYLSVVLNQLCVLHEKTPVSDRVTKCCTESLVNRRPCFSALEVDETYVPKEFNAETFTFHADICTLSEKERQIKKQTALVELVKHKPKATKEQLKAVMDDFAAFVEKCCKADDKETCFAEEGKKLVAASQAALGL

In the case of Camptothecin, the “affinity of lactone form for HSA” value ([1]; lactone form) is listed as “moderate affinity”.
In the case of `CCc1c2c(nc3ccc(O)cc13)-c1cc3c(c(=O)n1C2)COC(=O)[C@]3(O)CC` [SN-38], the “association of carboxylate form with the high affinity carboxylate binding pocket on HSA” value [1] is listed as “block SN-38 from associating”.
In the case of `CC[C@@]1(O)C(=O)OCc2c1cc1n(c2=O)Cc2c-1nc1ccc(O)cc1c2[Si](C)(C)C(C)(C)C` [DB-67, 7-t-butyldimethylsilyl-10-hydroxycamptothecin], the “activity against human glioma” value [2] is listed as “display activity against human glioma”, the “stability of topoisomerase I cleavage complexes” value [3] is listed as “more stable topoisomerase I cleavage complexes than camptothecin or SN-38” and the “% lactone at equilibrium” value [4] is listed as 30%. For the same compound, the t1/2 ([4]; lactone hydrolysis) was 2.17 h and the “association of carboxylate form with the high affinity carboxylate binding pocket on HSA” value [1] was “blocks the associations”.
For `CC[C@@]1(OC(=O)CN)C(=O)OCc2c1cc1n(c2=O)Cc2c-1nc1ccc(O)cc1c2[Si](C)(C)C(C)(C)C` [DB-67 20(S)-glycinate ester], the “decomposition at physiological pH” value [5] was “rapid and convenient non-enzymatic decomposition process that releases active DB-67”.
In the case of DB-67 4-aminobutanoate ester, the “decomposition of free prodrug” value [6] is reported as “extensive”.
